Patent US20200148646A1, “6-S[…] 7-S[…] ANALOGS AND THE USE THEREOF” (Purdue Pharma, L.P., priority 2013, published 2020)

Key:
μ-opioid receptor = μ-opioid receptor (Homo sapiens, UniProt P35372); assay: μ-opioid receptor [35S]GTPγS functional assay, U-2 OS cells; assay type: biochemical; parameters: host or cells: U-2 OS cells; details: for Emax: U2-OS cells, relative to DAMGO
Protocol: [^35S]GTPγS functional assays were conducted using freshly thawed μ-receptor membranes prepared in-house from a cell line expressing recombinant opioid receptor in a HEK-293, CHO or U-2 OS cell background, or purchased from a commercial source (Perkin Elmer, Shelton, Conn.; or DiscovRx, Fremont, Calif.). Assay reactions were prepared by sequentially adding the following reagents to binding buffer (100 mM NaCl, 10 mM MgCl2, 20 mM HEPES, pH 7.4) on ice (final concentrations indicated): membrane protein (0.026 mg/mL), saponin ([…]), GDP ([…]) and [^35S]GTPγS (0.20 nM; Perkin Elmer, Shelton, Conn.). The prepared membrane solution (190 l/well) was transferred to 96-shallow well polypropylene plates containing 10 μl of 20× concentrated stock solutions of the agonist [D-Ala^2, N-methyl-Phe^4 Gly-ol^5]-enkephalin (DAMGO) prepared in dimethyl sulfoxide (DMSO). Plates were incubated for 30 min at about 25° C. with shaking. Reactions were terminated by rapid filtration onto 96-well Unifilter GF/B filter plates (Perkin Elmer, Shelton, Conn.) using a 96-well tissue harvester (Perkin Elmer, Shelton, Conn.) followed by three filtration washes with 200 μl of ice-cold wash buffer (10 mM NaH2PO4, 10 mM Na2HPO4, pH 7.4). Filter plates were subsequently dried at 50° C. for 2-3 hr. BetaScint scintillation cocktail (Perkin Elmer, Shelton, Conn.) was added (50 μl/well) and plates were counted using a Packard Top-Count for 1 min/well. Data were analyzed using the sigmoidal dose-response curve fitting functions in GraphPad PRISM v. 3.0, or an in-house function for non-linear, sigmoidal dose-response curve-fitting.
μ GTP EC50 is the concentration of a compound providing 50% of the maximal response for the compound at a μ-opioid receptor.
μ GTP Emax (%) is the maximal effect elicited by a compound relative to the effect elicited by DAMGO, a standard agonist. Generally, the μ GTP Emax (%) value measures the efficacy of a compound to treat or prevent pain or other Conditions.
(§1) In TABLE 2A, activity response of certain Compounds of the Invention at the μ- and κ-opioid receptors using U-2 OS cells was determined as described above for functional assays.

human κ opioid receptor = human κ opioid receptor (Homo sapiens, UniProt P41145); assay: κ-opioid receptor [35S]GTPγS functional assay, U-2 OS cells; assay type: biochemical; parameters: expressed in transfected cells; host or cells: U-2 OS cells (in-house membranes); details: for Emax: U2-OS cells, relative to U69,593
human κ opioid receptor, sequence (P41145 whole entry): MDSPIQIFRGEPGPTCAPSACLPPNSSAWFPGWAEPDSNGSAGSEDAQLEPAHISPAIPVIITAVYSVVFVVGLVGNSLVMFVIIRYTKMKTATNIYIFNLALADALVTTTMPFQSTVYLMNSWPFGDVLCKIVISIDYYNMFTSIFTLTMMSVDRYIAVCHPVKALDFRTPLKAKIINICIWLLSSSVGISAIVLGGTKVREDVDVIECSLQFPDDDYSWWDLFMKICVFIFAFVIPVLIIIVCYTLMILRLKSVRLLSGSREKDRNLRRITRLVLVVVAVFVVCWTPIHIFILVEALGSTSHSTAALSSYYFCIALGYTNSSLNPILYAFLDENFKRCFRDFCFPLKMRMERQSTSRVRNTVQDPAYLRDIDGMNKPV
Protocol: Membranes from recombinant HEK-293 cells, CHO or U-2 OS cells expressing the recombinant human K opioid receptor (K) were prepared by lysing cells in ice cold hypotonic buffer (2.5 mM MgCl2, 50 mM HEPES, pH 7.4) (10 mL/10 cm dish) followed by homogenization with a tissue grinder/Teflon pestle. Functional [^35S]GTPγS binding assays were conducted as follows. K opioid receptor membrane solution was prepared by sequentially adding final concentrations of 0.026 μg/μl κ membrane protein (in-house), 10 μg/mL saponin, 3 μM GDP and 0.20 nM [^35S]GTPγS to binding buffer (100 mM NaCl, 10 mM MgCl2, 20 mM HEPES, pH 7.4) on ice. The prepared membrane solution (190 μl/well) was transferred to 96-shallow well polypropylene plates containing 10 μl of 20× concentrated stock solutions of agonist prepared in DMSO. Plates were incubated for 30 min at a temperature of about 25° C. with shaking. Reactions were terminated by rapid filtration onto 96-well Unifilter GF/B filter plates (Perkin Elmer, Shelton, Conn.) using a 96-well tissue harvester (Packard) and followed by three filtration washes with 200 μl ice-cold binding buffer (10 mM NaH2PO4, 10 mM Na2HPO4, pH 7.4). Filter plates were subsequently dried at 50° C. for 2-3 hours. Fifty μl/well scintillation cocktail (Perkin Elmer, Shelton, Conn.) was added and plates were counted in a Packard Top-Count for 1 min/well.
κ GTP EC50 is the concentration of a compound providing 50% of the maximal response for the compound at a κ receptor.
κ GTP Emax (%) is the maximal effect elicited by a compound relative to the effect elicited by U69,593.
as §1

μ-opioid receptor, sequence (P35372 whole entry, species assumed): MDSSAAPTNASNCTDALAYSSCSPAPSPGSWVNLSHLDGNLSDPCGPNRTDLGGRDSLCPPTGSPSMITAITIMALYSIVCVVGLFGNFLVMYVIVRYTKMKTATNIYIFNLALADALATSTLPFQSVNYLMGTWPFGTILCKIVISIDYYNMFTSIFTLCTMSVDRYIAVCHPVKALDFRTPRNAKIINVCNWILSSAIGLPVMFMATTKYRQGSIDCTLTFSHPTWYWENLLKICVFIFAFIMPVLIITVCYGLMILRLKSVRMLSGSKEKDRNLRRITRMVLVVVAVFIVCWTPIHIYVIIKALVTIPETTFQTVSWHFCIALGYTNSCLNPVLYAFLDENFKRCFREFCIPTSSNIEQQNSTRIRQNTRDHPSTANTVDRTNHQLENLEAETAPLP

| Structure (SMILES) | EC50 (μ-opioid receptor) | Emax (μ-opioid receptor) | EC50 (human κ opioid receptor) | Emax (human κ opioid receptor) |
| --- | --- | --- | --- | --- |
| COc1ccc2c(c1)[C@@]13CCC(=O)C[C@@]1(O)[C@@H](C2)N(CC1CC1)CC3 [Compound 31, (4bS,8aS,9R)-11-(cyclopropylmethyl)-8a-hydroxy-3-methoxy-5,6,8,8a,9,10-hexahydro-7H-9,4b-(epiminoethano)phenanthren-7-one] | 740 ± 49.5 nM | 57.3 ± 2.73% | 633 ± 87.1 nM | 108 ± 3.76% |
| N=C(N)NCCN[C@H]1CC[C@]23CCN(CC4CC4)[C@H](Cc4ccc(O)cc42)[C@]3(O)C1 [Compound 32, 1-(2-(((4bS,7S,8aS,9R)-11-(cyclopropylmethyl)-3,8a-dihydroxy-6,7,8,8a,9,10-hexahydro-5H-9,4b-(epiminoethano)phenanthren-7-yl)amino)ethyl)guanidine] | > 20000 nM | 5.33 ± 1.45% | > 20000 nM | -1% |
| COc1ccc2c(c1)[C@]13CCN(CC4CC4)[C@H](C2)[C@]1(O)C[C@@H](NCC(C)C)[C@@H](O)C3 [Compound 33, (4bR,6S,7R,8aS,9R)-11-(cyclopropylmethyl)-7-(isobutylamino)-3-methoxy-5,6,7,8,9,10-hexahydro-8aH-9,4b-(epiminoethano)phenanthrene-6,8a-diol] | 503 ± 43.5 nM | 43 ± 3.79% | 328 ± 22.1 nM | 93.7 ± 1.76% |
| CN[C@@H]1C[C@@]2(O)[C@H]3Cc4ccc(O)cc4[C@@]2(CCN3CC2CC2)C[C@@H]1O [Compound 35, (4bR,6S,7R,8aS,9R)-11-(cyclopropylmethyl)-7-(methylamino)-5,6,7,8,9,10-hexahydro-8aH-9,4b-(epiminoethano)phenanthrene-3,6,8a-triol] | 2.55 ± 0.33 nM | 25.7 ± 0.88% | 0.2 ± 0.042 nM | 97.3 ± 2.85% |
| Oc1ccc2c(c1)[C@]13CCN(CC4CC4)[C@H](C2)[C@]1(O)C[C@@H](NCc1ccccc1)[C@@H](O)C3 [Compound 36, (4bR,6S,7R,8aS,9R)-7-(benzylamino)-11-(cyclopropylmethyl)-5,6,7,8,9,10-hexahydro-8aH-9,4b-(epiminoethano)phenanthrene-3,6,8a-triol] | 2.36 ± 0.64 nM | 24.3 ± 0.88% | 0.34 ± 0.033 nM | 62 ± 3.06% |
| Oc1ccc2c(c1)[C@]13CCN(CC4CC4)[C@H](C2)[C@]1(O)C[C@@H](NCc1ccccc1)[C@H](O)C3 [Compound 37, (4bR,6R,7R,8aS,9R)-7-(benzylamino)-11-(cyclopropylmethyl)-5,6,7,8,9,10-hexahydro-8aH-9,4b-(epiminoethano)phenanthrene-3,6,8a-triol] | 3.35 ± 0.41 nM | 24.3 ± 0.88% | 0.5 ± 0.039 nM | 87.7 ± 2.19% |
| Oc1ccc2c(c1)[C@]13CCN(CC4CC4)[C@H](C2)[C@]1(O)C[C@@H](N1CCCC1)[C@@H](O)C3 [Compound 38, (4bR,6S,7R,8aS,9R)-11-(cyclopropylmethyl)-7-(pyrrolidin-1-yl)-5,6,7,8,9,10-hexahydro-8aH-9,4b-(epiminoethano)phenanthrene-3,6,8a-triol] | 1.27 ± 0.19 nM | 23.3 ± 1.86% | 0.33 ± 0.022 nM | 80 ± 3.79% |
| Oc1ccc2c(c1)[C@]13CCN(CC4CC4)[C@H](C2)[C@]1(O)C[C@@H](N1CCOCC1)[C@@H](O)C3 [Compound 39, (4bR,6S,7R,8aS,9R)-11-(cyclopropylmethyl)-7-morpholino-5,6,7,8,9,10-hexahydro-8aH-9,4b-(epiminoethano)phenanthrene-3,6,8a-triol] | > 20000 nM | 2% | > 20000 nM | 1% |
| O=C(O)CN[C@@H]1C[C@@]2(O)[C@H]3Cc4ccc(O)cc4[C@@]2(CCN3CC2CC2)C[C@@H]1O [Compound 40, ((4bR,6S,7R,8aS,9R)-11-(cyclopropylmethyl)-3,6,8a-trihydroxy-6,7,8,8a,9,10-hexahydro-5H-9,4b-(epiminoethano)phenanthren-7-yl)glycine] | > 20000 nM | 2% | 7.24 ± 0.65 nM | 43 ± 3.06% |
| COc1ccc2c(c1)[C@@]13CC[C@H](NCC(C)C)C[C@@]1(O)[C@@H](C2)N(CC1CC1)CC3 [Compound 41, (4bS,7S,8aS,9R)-11-(cyclopropylmethyl)-7-(isobutylamino)-3-methoxy-5,6,7,8,9,10-hexahydro-8aH-9,4b-(epiminoethano)phenanthren-8a-ol] | 674 ± 63.8 nM | 74.7 ± 4.67% | 41.6 ± 2.25 nM | 102 ± 2.19% |
| CC(=O)N[C@H]1CC[C@]23CCN(CC4CC4)[C@H](Cc4ccc(O)cc42)[C@]3(O)C1 [Compound 47, N-((4bS,7S,8aS,9R)-11-(cyclopropylmethyl)-3,8a-dihydroxy-6,7,8,8a,9,10-hexahydro-5H-9,4b-(epiminoethano)phenanthren-7-yl)acetamide] | 0.61 ± 0.17 nM | 44 ± 1.73% | 0.14 ± 0.027 nM | 105 ± 1.76% |
| COc1ccc2c(c1)[C@]13CCN(CC4CC4)[C@H](C2)[C@]1(O)C[C@H](NC(=O)C(C)C)C(O)C3 (stereo partly drawn) [Compound 49, N-((4bR,7S,8aS,9R)-11-(cyclopropylmethyl)-6,8a-dihydroxy-3-methoxy-6,7,8,8a,9,10-hexahydro-5H-9,4b-(epiminoethano)phenanthren-7-yl)isobutyramide] | 8460 nM | 27 ± 1.53% | 7940 nM | 90.3 ± 1.67% |
| COc1ccc2c(c1)[C@]13CCN(CC4CC4)[C@H](C2)[C@]1(O)C[C@H](OCC(C)C)[C@H](O)C3 [Compound 51, (4bR,6R,7S,8aS,9R)-11-(cyclopropylmethyl)-7-isobutoxy-3-methoxy-5,6,7,8,9,10-hexahydro-8aH-9,4b-(epiminoethano)phenanthrene-6,8a-diol] | > 20000 nM | 7% | 14500 ± 1680 nM | 86.7 ± 3.18% |
| COc1ccc2c(c1)[C@@]13CC[C@@H](O)C[C@@]1(O)[C@@H](C2)N(CC1CC1)CC3 [Compound 52, (4bS,7R,8aS,9R)-11-(cyclopropylmethyl)-3-methoxy-5,6,7,8,9,10-hexahydro-8aH-9,4b-(epiminoethano)phenanthrene-7,8a-diol] | 1260 nM | 23.2 ± 4.07% | 1570 ± 97.4 nM | 91.3 ± 0.67% |
| CCC(C)C[C@H]1C[C@@]2(O)[C@H]3Cc4ccc(O)cc4[C@@]2(CCN3CC2CC2)C[C@H]1O (stereo partly drawn) [Compound 53, (4bR,6R,7S,8aS,9R)-11-(cyclopropylmethyl)-7-(2-methylbutyl)-5,6,7,8,9,10-hexahydro-8aH-9,4b-(epiminoethano)phenanthrene-3,6,8a-triol] | > 20000 nM | 3% | 73.8 ± 11.8 nM | 62 ± 1.53% |
| Oc1ccc2c(c1)[C@]13CCN(CC4CC4)[C@H](C2)[C@]1(O)C[C@H](CC1CCCC1)[C@H](O)C3 [Compound 54, (4bR,6R,7S,8aS,9R)-7-(cyclopentylmethyl)-11-(cyclopropylmethyl)-5,6,7,8,9,10-hexahydro-8aH-9,4b-(epiminoethano)phenanthrene-3,6,8a-triol] | > 20000 nM | 3% | 32.1 ± 2.76 nM | 97.7 ± 3.93% |
| CC(C)C(=O)N[C@H]1C[C@@]2(O)[C@H]3Cc4ccc(O)cc4[C@@]2(CCN3CC2CC2)C[C@H]1O [Compound 58, N-((4bR,6R,7S,8aS,9R)-11-(cyclopropylmethyl)-3,6,8a-trihydroxy-6,7,8,8a,9,10-hexahydro-5H-9,4b-(epiminoethano)phenanthren-7-yl)isobutyramide] | 80.9 ± 15.1 nM | 19.3 ± 1.45% | 38.1 ± 2.2 nM | 101 ± 1.2% |
